Measurements published in patent US9588122B2, “Methods of treating cancer sensitive to anti-EGFR therapy and modifying treatment using peroxiredoxin 6 biomarker” (The Board of Trustees of the Leland Stanford Junior …, priority 2013, dated 2017).

How the values were obtained:
A431 xenografts [1] = assay: A431 subcutaneous xenograft study (Example 2)
A431 xenografts [2] = assay: A431 xenograft model (Example 1); assay type: in vivo, mice
From the text: . […] . Control animals received vehicle alone (20 animals).

A431 = assay: Dose-dependent change in panel protein levels by western blot; assay type: cell-based, human; as to BAG4 protein level change: key: (+) for increase; (−) for decrease; N.C.: (N.C) for no change; (~) for not detected; as to CAD17 protein level change: key: (+) for increase; (−) for decrease; N.C.: (N.C) for no change; (~) for not detected; as to CBFB protein level change: key: (+) for increase; (−) for decrease; N.C.: (N.C) for no change; (~) for not detected; as to Claudin 1 protein level change: key: (+) for increase; (−) for decrease; N.C.: (N.C) for no change; (~) for not detected
Description: (§1) Lysates were sonicated for 10 minutes, heated at 95° C. for 10 minutes, and centrifuged for 15 minutes at 20,000×g. The supernatant was cleared through a 0.22-micron filter and protein concentration was determined (BCA, BioRad, Hercules, Calif.). Lysates were subject to SDS-PAGE and subsequent immunoblot. For in vivo experiments, mouse tumor pieces from 5 mice were pooled and suspended in RAF buffer and homogenized with a high-speed blender. The homogenate was centrifuged for 5 min at 200×g. The supernatant was sonicated on ice for 2 minutes and centrifuged for 1 hr at 12,000×g. The supernatant (soluble fraction) was cleared through a 0.22-micron filter and processed as above. The pellet (insoluble fraction) was resuspended in RAF buffer with 2% SDS and DTT, heated at 95° C. and sonicated prior to processing.

A431-ZDR tumors = assay: Gefitinib-resistant A431-ZDR xenograft model (Example 1); assay type: in vivo, mice; conditions: treated vs untreated controls
Description: Lysates were sonicated for 10 minutes, heated at 95° C. for 10 minutes, and centrifuged for 15 minutes at 20,000×g. The supernatant was cleared through a 0.22-micron filter and protein concentration was determined (BCA, BioRad, Hercules, Calif.). Lysates were subject to SDS-PAGE and subsequent immunoblot. For in vivo experiments, mouse tumor pieces from 5 mice were pooled and suspended in RAF buffer and homogenized with a high-speed blender. The homogenate was centrifuged for 5 min at 200×g. The supernatant was sonicated on ice for 2 minutes and centrifuged for 1 hr at 12,000×g. The supernatant (soluble fraction) was cleared through a 0.22-micron filter and processed as above. The pellet (insoluble fraction) was resuspended in RAF buffer with 2% SDS and DTT, heated at 95° C. and sonicated prior to processing. Serum from 5 mice was pooled and depleted using two MARS-3 columns (Agilent) connected in tandem with HPLC. The unbound fraction was concentrated to a final concentration of 2 mg/ml and processed as above.

H23 = assay: Dose-dependent change in panel protein levels by western blot; conditions: 16 h
Description: as §1

H1650 = assay: as above; conditions: 16 h
Description: as §1

H1975 = assay: as above; conditions: 16 h
Description: as §1

H1975 xenografts = assay: H1975 xenograft study (Example 2)
[3] = dose-dependent, 16 h, western blot

COc1cc2ncnc(Nc3ccc(F)c(Cl)c3)c2cc1OCCCN1CCOCC1 [gefitinib]
tumor growth (A431 xenografts [1]; 50 mg/kg daily oral, vs vehicle Day 7 P=0.0102, Day 11 P=0.002, Day 15 P=0.0001): marked arrest in tumor growth
mean serum PRDX6 levels (A431 xenografts [1]; between Day 0 and Day 15, change vs vehicle P<0.0001): decreased
tumor PRDX6 (tumor lysates) (A431 xenografts [1]; day 15, vs vehicle, P=0.2185): no statistically significant difference
difference in mean change from baseline in serum PRDX6 normalized to tumor volume (A431 xenografts [1]; vs vehicle, P=0.0027): statistically significant
tumor size and growth (A431 xenografts [2]; 50 mg/kg gefitinib vs untreated): significantly smaller than those in untreated mice and grew at a slower rate
panel proteins whose in vivo change was concordant with in vitro experiments (A431 xenografts [2]; A431 tumor lysates, immunoblot): 12 of the 16
VAMP3, KLF5, and GLTSCR2 level (A431; 100 nM): marginal increase
level of all other verified proteins (A431; 100, 500, and 1,000 nM, 16 hrs, western blot): dose-dependent increase
ELAVL-1 response at higher doses (A431; 500 and 1,000 nM vs 100 nM, 16 hrs, western blot): not amplified at higher doses
BAG4 protein level change (A431; [3]): +
CAD17 protein level change (A431; [3]): +
CBFB protein level change (A431; [3]): +
Claudin 1 protein level change (A431; [3]): +
ELAVL-1 protein level change (A431; [3]): +
EpCAM protein level change (A431; [3]): +
HSPG2 protein level change (A431; [3]): +
PDCD4 protein level change (A431; [3]): +
PRDX6 protein level change (A431; [3]): +
QARS protein level change (A431; [3]): +
S100A9 protein level change (A431; [3]): +
SERPINE1 protein level change (A431; [3]): +
SNX5 protein level change (A431; [3]): −
TESTICAN2 protein level change (A431; [3]): +
TNFAIP2 protein level change (A431; [3]): +
TROP-2 protein level change (A431; [3]): +
tumor growth rates (A431-ZDR tumors): No differences in tumor growth rates
BAG4 protein level change (H23): +
CAD17 protein level change (H23): +
CBFB protein level change (H23): N.C.
Claudin 1 protein level change (H23): N.C.
ELAVL-1 protein level change (H23): N.C.
EpCAM protein level change (H23): N.C.
HSPG2 protein level change (H23): N.C.
PDCD4 protein level change (H23): N.C.
PRDX6 protein level change (H23): N.C.
QARS protein level change (H23): N.C.
S100A9 protein level change (H23): N.C.
SERPINE1 protein level change (H23): N.C.
SNX5 protein level change (H23): N.C.
TNFAIP2 protein level change (H23): +
TROP-2 protein level change (H23): N.C.
BAG4 protein level change (H1650): N.C.
CAD17 protein level change (H1650): +
CBFB protein level change (H1650): +
Claudin 1 protein level change (H1650): +
ELAVL-1 protein level change (H1650): +
EpCAM protein level change (H1650): +
HSPG2 protein level change (H1650): +
PDCD4 protein level change (H1650): +
PRDX6 protein level change (H1650): +
QARS protein level change (H1650): +
S100A9 protein level change (H1650): N.C.
SERPINE1 protein level change (H1650): +
SNX5 protein level change (H1650): N.C.
TESTICAN2 protein level change (H1650): N.C.
TNFAIP2 protein level change (H1650): +
TROP-2 protein level change (H1650): +
BAG4 protein level change (H1975): N.C.
CAD17 protein level change (H1975): N.C.
CBFB protein level change (H1975): N.C.
Claudin 1 protein level change (H1975): N.C.
ELAVL-1 protein level change (H1975): N.C.
EpCAM protein level change (H1975): N.C.
HSPG2 protein level change (H1975): N.C.
PDCD4 protein level change (H1975): N.C.
PRDX6 protein level change (H1975): N.C.
S100A9 protein level change (H1975): N.C.
SERPINE1 protein level change (H1975): N.C.
SNX5 protein level change (H1975): N.C.
TESTICAN2 protein level change (H1975): N.C.
TNFAIP2 protein level change (H1975): N.C.
TROP-2 protein level change (H1975): N.C.
tumor response (tumor volumes) (H1975 xenografts; 50 mg/kg daily oral, vs vehicle): no response
mean serum PRDX6 levels (H1975 xenografts; after treatment): increased
PRDX6 levels with respect to treatment (H1975 xenografts; models carrying Iressa-resistant NSCLC xenografts): did not change
difference in mean change from baseline in serum PRDX6 (H1975 xenografts; vs vehicle, Day 4 (P=0.461), Day 10-14 (P=0.3404)): not statistically significant
difference in mean change from baseline in serum PRDX6 normalized to tumor volume (H1975 xenografts; vs vehicle, Day 4 (P=0.7922), Day 10-14 (P=0.8849)): not significant
